Results published in patent publication US9708368B2, “Linear peptide antibiotics” (priority 2012, dated 2017).
≈ marks a conversion by molar mass, not a printed value. Square brackets hold non-standard residues; d marks the D form. Peptide text beside a SMILES is read from it. * marks the point of attachment. boroAla((+)-pinanediol) = C[C@H](N*)B1O[C@@H]2C[C@@H]3C[C@@H](C3(C)C)[C@]2(C)O1; Biphenylcarbonyl(4'-Bu) = CCCCc1ccc(-c2ccc(C(=O)*)cc2)cc1; X11 = CC[C@H](N*)B1OC2C[C@@H]3C[C@@H](C3(C)C)[C@]2(C)O1; X1 = C[C@H](N*)B1OC2C[C@@H]3C[C@@H](C3(C)C)[C@]2(C)O1; Benzoyl(4-(4-Cl-Ph)) = O=C(c1ccc(-c2ccc(Cl)cc2)cc1)*; X21 = CCCCc1ccc(-c2ncc(C(=O)*)s2)cc1; NMeY = CN[C@@H](Cc1ccc(O)cc1)C(=O)O; Hpg = N[C@H](C(=O)O)c1ccc(O)cc1; boroAla = C[C@H](N*)B(O)O; Aze = O=C(O)[C@@H]1CCN1; Dab = NCC[C@H](N)C(=O)O; Abu = CC[C@H](N)C(=O)O; Dap = NC[C@H](N)C(=O)O; βAla = NCCC(=O)O

Key:
[1] = target: E. coli SPase (Escherichia coli, UniProt P00803); test: Biochemical SPase activity assay (fluorogenic peptide substrate), E. coli enzyme
[2] = tested on: methicillin resistant Staphylococcus aureus (MRSA) strain USA300 (NRS384); details: Method B, 35° C., 22 hours
[3] = tested on: Escherichia coli strain MC4100 IMP-4213, which harbors an LptD mutation; details: Method B; E. coli MC4100 IMP-4213 (LptD mutation); 35° C., 22 hours
Method: In vitro antimicrobial activity of each compound was determined by measuring minimal inhibitor concentrations (MICs) using the broth micro-dilution technique as approved by the Clinical and Laboratory Standards Institute (CLSI). […] Bacterial inocula were prepared by scraping cells into 1 mL of testing media (cation adjusted Mueller Hinton Broth supplemented with 0.002% v/v Tween-80) and diluting to a final OD600 nm of 0.01.
Test compounds were prepared in DMSO at a concentration of 10 mg/ml. […] Bacterial inocula were added to the two fold serial dilutions of test compounds to a final density of OD OD600 nm of 0.0005 and incubated stationarily at 35° C. for 22 hours, after which the plates were examined visually.

[4] = target: S. aureus SPase (Staphylococcus aureus, UniProt P0A070); test: biochemical
S. aureus SPase, sequence (P0A070 whole entry): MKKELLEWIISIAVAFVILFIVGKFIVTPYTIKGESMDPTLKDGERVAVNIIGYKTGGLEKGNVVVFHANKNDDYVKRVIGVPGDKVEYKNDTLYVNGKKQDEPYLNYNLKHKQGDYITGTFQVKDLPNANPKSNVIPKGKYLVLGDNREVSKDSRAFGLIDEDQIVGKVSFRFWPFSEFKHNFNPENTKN

E. coli SPase, sequence (P00803 whole entry): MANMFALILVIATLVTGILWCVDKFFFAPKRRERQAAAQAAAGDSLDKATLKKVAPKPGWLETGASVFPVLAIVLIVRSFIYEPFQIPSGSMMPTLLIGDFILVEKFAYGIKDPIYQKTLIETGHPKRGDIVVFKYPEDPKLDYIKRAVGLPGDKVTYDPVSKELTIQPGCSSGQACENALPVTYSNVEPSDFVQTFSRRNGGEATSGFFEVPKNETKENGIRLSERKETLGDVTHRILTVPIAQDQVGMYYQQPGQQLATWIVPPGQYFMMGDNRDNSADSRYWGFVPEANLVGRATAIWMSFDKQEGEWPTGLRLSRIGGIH

SMILES	IC50 [1] [nM]	MIC (μg/mL) S. aureus [2] [µg/mL]	MIC (μg/mL) E. coli [3] [µg/mL]	IC50 [4] [nM]
CCCCc1ccc(-c2ccc(C(=O)N[C@@H](CN)C(=O)N[C@@H](CCC(=O)N[C@H](C)C(=O)O)C(=O)N[C@@H](C)C(=O)N[C@@H](CCCCN)C(=O)N[C@@H](C)B3O[C@@H]4C[C@@H]5C[C@@H](C5(C)C)[C@]4(C)O3)cc2)cc1 [Compound 260] ({Biphenylcarbonyl(4'-Bu)}-[Dap]E(dA)AK-{boroAla((+)-pinanediol)})	5.6	4 (≈ 4.23 µM)	1 (≈ 1.06 µM)	83
CCCCc1ccc(-c2ccc(C(=O)N[C@@H](CN)C(=O)N[C@@H](CCC(=O)N[C@H](CC(=O)O)C(=O)O)C(=O)N[C@@H](C)C(=O)N[C@@H](CCCCN)C(=O)N[C@@H](C)B3OC4C[C@@H]5C[C@@H](C5(C)C)[C@]4(C)O3)cc2)cc1 (stereo partly drawn) [Compound 259] ({Biphenylcarbonyl(4'-Bu)}-[Dap]E(dD)AK-X1)	2.6	11 (≈ 11.1 µM)	4 (≈ 4.04 µM)	32
CCCCc1ccc(-c2ccc(C(=O)N[C@@H](CO)C(=O)N[C@H](C(=O)N[C@@H](C)C(=O)N[C@@H](CCCCN)C(=O)N[C@@H](C)B(O)O)[C@@H](C)O)cc2)cc1 [Compound 164] ({Biphenylcarbonyl(4'-Bu)}-STAK-boroAla)	44	1.4 (≈ 1.96 µM)	1 (≈ 1.4 µM)	120
CCCCc1ccc(-c2ccc(C(=O)N[C@@H](CCN)C(=O)N[C@H](C(=O)N[C@@H](C)C(=O)N[C@@H](CCCCN)C(=O)N[C@@H](C)B3O[C@@H]4C[C@@H]5C[C@@H](C5(C)C)[C@]4(C)O3)[C@@H](C)O)cc2)cc1 [Compound 187] ({Biphenylcarbonyl(4'-Bu)}-[Dab]TAK-{boroAla((+)-pinanediol)})	170	8 (≈ 9.3 µM)	2.8 (≈ 3.26 µM)	2100
CCCCc1ccc(-c2ccc(C(=O)NCCC(=O)N[C@@H](CCCCN)C(=O)N[C@H](C(=O)N[C@@H](C)C(=O)N[C@@H](Cc3ccc(O)cc3)C(=O)N[C@@H](C)B3OC4C[C@@H]5C[C@@H](C5(C)C)[C@]4(C)O3)[C@@H](C)O)cc2)cc1 (stereo partly drawn) [Compound 225] ({Biphenylcarbonyl(4'-Bu)-βAla}-KTAY-X1)	7.1	0.57 (≈ 0.573 µM)	2 (≈ 2.01 µM)	4
CCCCc1ccc(-c2ccc(C(=O)N[C@H](CO)C(=O)N[C@H](C)C(=O)NCC(=O)N(C)[C@@H](Cc3ccc(O)cc3)C(=O)N[C@@H](C)C(=O)N[C@@H](CC(N)=O)C(=O)N[C@@H](C)B3OC4C[C@@H]5C[C@@H](C5(C)C)[C@]4(C)O3)cc2)cc1 (stereo partly drawn) [Compound 227] ({Biphenylcarbonyl(4'-Bu)}-[dS][dA]G[NMeY]AN-X1)	550	8 (≈ 7.71 µM)	13 (≈ 12.5 µM)	850
CCCCc1ccc(-c2ccc(C(=O)N[C@@H](CCN)C(=O)N[C@@H](CCN)C(=O)N[C@@H](C)C(=O)N[C@@H](CC(C)C)C(=O)N[C@@H](C)B(O)O)cc2)cc1 [Compound 179] ({Biphenylcarbonyl(4'-Bu)}-[Dab][Dab]AL-boroAla)	22	2 (≈ 2.82 µM)	0.5 (≈ 0.705 µM)	570
CCCCc1ccc(-c2ccc(C(=O)NCCC(=O)N[C@@H](CCCCN)C(=O)N[C@H](C(=O)N[C@@H](CC)C(=O)N[C@@H](CC(N)=O)C(=O)N[C@@H](CC)B3OC4C[C@@H]5C[C@@H](C5(C)C)[C@]4(C)O3)[C@@H](C)O)cc2)cc1 (stereo partly drawn) [Compound 205] ({Biphenylcarbonyl(4'-Bu)-βAla}-KT[Abu]N-X11)	210	2 (≈ 2.06 µM)	32 (≈ 32.9 µM)	20
CCCCc1ccc(-c2ccc(C(=O)N[C@@H](CCCCN)C(=O)N[C@H](C(=O)N[C@@H](C)C(=O)N[C@@H](CCN)C(=O)N[C@@H](C)B3O[C@@H]4C[C@@H]5C[C@@H](C5(C)C)[C@]4(C)O3)[C@@H](C)O)cc2)cc1 [Compound 140] ({Biphenylcarbonyl(4'-Bu)}-KTA[Dab]-{boroAla((+)-pinanediol)})	50	1 (≈ 1.16 µM)	8 (≈ 9.3 µM)	52
CCCCc1ccc(-c2ccc(C(=O)NCCC(=O)N[C@@H](CCCCN)C(=O)N3CCC[C@H]3C(=O)N[C@@H](C)C(=O)N[C@@H](CCCCN)C(=O)N[C@@H](C)B(O)O)cc2)cc1 [Compound 221] ({Biphenylcarbonyl(4'-Bu)-βAla}-KPAK-boroAla)	62	1 (≈ 1.22 µM)	8 (≈ 9.75 µM)	130
CCCCc1ccc(-c2ccc(C(=O)NCCC(=O)N[C@@H](CCCCN)C(=O)N[C@H](C(=O)N[C@@H](C)C(=O)N[C@@H](CC(N)=O)C(=O)N[C@@H](C)B(O)O)[C@@H](C)O)cc2)cc1 [Compound 204] ({Biphenylcarbonyl(4'-Bu)-βAla}-KTAN-boroAla)	33	0.45 (≈ 0.555 µM)	4.6 (≈ 5.67 µM)	13
CCCCc1ccc(-c2ccc(C(=O)NCCC(=O)N[C@@H](CCCCN)C(=O)N[C@H](C(=O)N[C@@H](C)C(=O)N[C@@H](CC(N)=O)C(=O)N[C@@H](C)B3OC4C[C@@H]5C[C@@H](C5(C)C)[C@]4(C)O3)c3ccc(O)cc3)cc2)cc1 (stereo partly drawn) [Compound 209] ({Biphenylcarbonyl(4'-Bu)-βAla}-K[Hpg]AN-X1)	12	1 (≈ 1.01 µM)	2.5 (≈ 2.52 µM)	15
CCCCc1ccc(-c2ccc(C(=O)NCCC(=O)N[C@@H](CCCCN)C(=O)N[C@@H](CCC(N)=O)C(=O)N[C@@H](C)C(=O)N[C@@H](CCCCN)C(=O)N[C@@H](C)B3OC4C[C@@H]5C[C@@H](C5(C)C)[C@]4(C)O3)cc2)cc1 (stereo partly drawn) [Compound 216] ({Biphenylcarbonyl(4'-Bu)-βAla}-KQAK-X1)	29	0.21 (≈ 0.213 µM)	4 (≈ 4.06 µM)	4.1
CCCCc1ccc(-c2ccc(C(=O)N[C@@H](CCN)C(=O)N[C@H](C(=O)N[C@@H](C)C(=O)N[C@@H](CCCCN)C(=O)N[C@@H](C)B3OC4C[C@@H]5C[C@@H](C5(C)C)[C@]4(C)O3)[C@@H](C)O)c(C)c2)cc1 (stereo partly drawn) [Compound 241]	2.1	0.25 (≈ 0.286 µM)	0.18 (≈ 0.206 µM)	42
CCCCc1ccc(-c2ccc(C(=O)N[C@@H](CCCCN)C(=O)N[C@H](C(=O)N[C@@H](CC)C(=O)N[C@@H](CC(N)=O)C(=O)N[C@@H](C)B3O[C@@H]4C[C@@H]5C[C@@H](C5(C)C)[C@]4(C)O3)[C@@H](C)O)cc2)cc1 [Compound 144] ({Biphenylcarbonyl(4'-Bu)}-KT[Abu]N-{boroAla((+)-pinanediol)})	18	0.25 (≈ 0.282 µM)	0.25 (≈ 0.282 µM)	36
CC(C)C[C@H](NC(=O)[C@H](C)NC(=O)[C@H](CCN)NC(=O)[C@H](CCN)NC(=O)c1ccc(-c2ccc(Cl)cc2)cc1)C(=O)N[C@@H](C)B1OC2C[C@@H]3C[C@@H](C3(C)C)[C@]2(C)O1 (stereo partly drawn) [Compound 173] ({Benzoyl(4-(4-Cl-Ph))}-[Dab][Dab]AL-X1)	69	2 (≈ 2.43 µM)	2 (≈ 2.43 µM)	550
CCCCc1ccc(-c2ncc(C(=O)N[C@@H](CCN)C(=O)N[C@H](C(=O)N[C@@H](C)C(=O)N[C@@H](CCCCN)C(=O)N[C@@H](C)B3OC4C[C@@H]5C[C@@H](C5(C)C)[C@]4(C)O3)[C@@H](C)O)s2)cc1 (stereo partly drawn) [Compound 248] (X21-[Dab]TAK-X1)	11	0.25 (≈ 0.288 µM)	0.25 (≈ 0.288 µM)	170
CCCCc1ccc(-c2ccc(C(=O)N[C@@H](CCN)C(=O)N3CC[C@H]3C(=O)N[C@@H](C)C(=O)N[C@@H](CCCCN)C(=O)N[C@@H](C)B3O[C@@H]4C[C@@H]5C[C@@H](C5(C)C)[C@]4(C)O3)cc2)cc1 [Compound 183] ({Biphenylcarbonyl(4'-Bu)}-[Dab][Aze]AK-{boroAla((+)-pinanediol)})	20	1 (≈ 1.19 µM)	1 (≈ 1.19 µM)	610
